According to the supplement of paper PMC10307832:

What was measured:
Experiment in all cases: relative viability (nuclei count vs DMSO), 5 days (fraction); higher = more cells survive
[1] = compound: CC1=CC(=CC=C1)NC2=NC(=CS2)C3=CC=NC=C3 + CCNC(=O)c1noc(-c2cc(C(C)C)c(O)cc2O)c1-c1ccc(CN2CCOCC2)cc1 [Luminespib] (partner 0.01 µM)
In short: (§1)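 Lung cancer cell lines were pin-tool dosed in 1536-well plates on the day after seeding, with either a lone drug or a fixed anchor-drug dose plus five library-drug doses (not always all listed) in √10 steps. Nuclei were counted on 4× images after 5 days. Relative viability is the ratio of treated-well to vehicle-well nuclei counts, with each value a median of duplicate plates.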

[2] = compound: CC1=CC(=CC=C1)NC2=NC(=CS2)C3=CC=NC=C3 + N=C(N)NC(=N)NCCc1ccccc1 [Phenformin] (partner 250 µM)
In short: as §1

[3] = compound: CC1=CC(=CC=C1)NC2=NC(=CS2)C3=CC=NC=C3 + Nc1ncn([C@H]2C[C@H](O)[C@@H](CO)O2)c(=O)n1 [Decitabine] (partner 2 µM)
In short: as §1

Masitinib + Linsitinib = compound: Cc1ccc(NC(=O)c2ccc(CN3CCN(C)CC3)cc2)cc1Nc1nc(-c2cccnc2)cs1 [Masitinib] + C[C@]1(O)C[C@@H](c2nc(-c3ccc4ccc(-c5ccccc5)nc4c3)c3c(N)nccn32)C1 [Linsitinib] (partner 1 µM)
In short: as §1

| Cell Line | relative viability ([1]; first compound 0.08 µM) | relative viability ([1]; first compound 0.253 µM) | relative viability ([1]; first compound 2.53 µM) | relative viability ([1]; first compound 8 µM) | relative viability ([2]; first compound 0.08 µM) | relative viability ([2]; first compound 0.253 µM) | relative viability ([2]; first compound 2.53 µM) | relative viability ([2]; first compound 8 µM) | relative viability ([3]; first compound 0.08 µM) | relative viability ([3]; first compound 0.253 µM) | relative viability ([3]; first compound 0.8 µM) | relative viability ([3]; first compound 2.53 µM) | relative viability ([3]; first compound 8 µM) | relative viability (Masitinib + Linsitinib; first compound 0.01 µM) | relative viability (Masitinib + Linsitinib; first compound 0.03162 µM) | relative viability (Masitinib + Linsitinib; first compound 0.1 µM) | relative viability (Masitinib + Linsitinib; first compound 0.3162 µM) | relative viability (Masitinib + Linsitinib; first compound 1 µM) | relative viability ([1]; first compound 0.8 µM) | relative viability ([2]; first compound 0.8 µM) |
| --- | --- | --- | --- | --- | --- | --- | --- | --- | --- | --- | --- | --- | --- | --- | --- | --- | --- | --- | --- | --- |
| SK-LU-1 | 0.205 | 0.223 | 0.183 | 0.227 | 0.452 | 0.471 | 0.731 | 0.63 | 0.624 | 0.625 | 0.563 | 0.617 | 0.726 | 1.06 | 1.22 | 1.26 | 1.43 | 1.25 | – | – |
| A-427 | 0.738 | 0.916 | 0.729 | 0.866 | 0.355 | 0.28 | 0.326 | 0.244 | 0.558 | 0.544 | 0.547 | 0.548 | 0.546 | – | 1.06 | – | 1.18 | 1.07 | 0.918 | 0.355 |
| NCI-H460 | 0.0315 | 0.0322 | 0.0298 | 0.0349 | 0.478 | 0.499 | 0.479 | 0.438 | 0.445 | 0.432 | 0.464 | 0.405 | 0.402 | 0.934 | 0.934 | 0.977 | 1.26 | 1.07 | 0.04 | 0.511 |
| NCI-H1734 | 0.203 | 0.22 | 0.192 | 0.191 | 0.401 | 0.353 | 0.456 | 0.38 | 0.446 | 0.417 | 0.457 | 0.507 | 0.463 | 0.857 | 0.854 | 0.943 | 0.747 | 0.855 | 0.22 | 0.399 |
| NCI-H1915 | 0.897 | 0.857 | 0.787 | 0.776 | 0.38 | 0.352 | 0.372 | 0.372 | 0.244 | 0.277 | 0.262 | 0.276 | 0.261 | – | 1.15 | 1.09 | 0.974 | 1.03 | 0.833 | 0.371 |
| Calu-6 | – | – | – | – | – | – | – | – | – | – | – | – | – | 0.815 | 0.916 | 1.06 | 0.997 | 0.902 | – | – |
| SW 1573 | 0.296 | 0.19 | 0.248 | 0.253 | 0.316 | 0.36 | 0.389 | 0.399 | 0.48 | 0.409 | 0.441 | 0.454 | 0.485 | 0.689 | 0.848 | 0.985 | 0.838 | 0.803 | 0.16 | 0.352 |
| RERF-LC-KJ | 1.06 | 1.19 | 0.999 | 0.717 | 0.449 | 0.403 | 0.384 | 0.363 | 0.675 | 0.64 | 0.62 | 0.522 | 0.387 | 0.878 | 0.849 | 0.926 | 0.871 | 0.736 | 0.982 | 0.373 |
| EMC-BAC-2 | 1.15 | 1.23 | 1.1 | 1.13 | 0.415 | 0.505 | 0.541 | 0.491 | 0.916 | – | 0.91 | 0.918 | 0.884 | 0.757 | 0.796 | 0.867 | 0.903 | 0.814 | 1.15 | 0.58 |
